In brackets after ≈: the same amount, converted by molar mass. Like-named read-outs stand apart in the source and are kept apart here.
Legend:
[1] = tested on: M. abscessus (MABSC); assay: MIC against CF isolates (Example 7, Table 18); type: cell-based, Mycobacterium abscessus complex; details: Mycobacteroides abscessus
[2] = tested on: relevant ATCC QC organisms; details: CLSI established QC range, cited from earlier work
[3] = tested on: E. faecium; assay: Broth microdilution MIC (Example 5); type: cell-based; details: VRE vanA
Procedure, shortened: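 Colonies were suspended to a 0.5 McFarland standard, diluted in test media, and dispensed into plates holding two-fold serial drug dilutions.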

[4] = tested on: vancomycin-intermediate Staphylococcus aureus; assay: Broth microdilution MIC (Example 6); type: cell-based
Procedure, shortened: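 CLSI broth microdilution in cation-adjusted Mueller Hinton broth, test agents 0.06-64 μg/mL from DMSO stocks, inoculum approx. 5×10^5 CFU/mL. Incubation 35° C for 16–20 hr; MIC taken as lowest concentration inhibiting visible growth.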

NCC[C@H](O)C(=O)N[C@@H]1C[C@H](N)[C@@H](O[C@H]2O[C@H](CN)[C@@H](O)[C@H](O)[C@H]2O)[C@H](O)[C@H]1O[C@H]1O[C@H](CO)[C@@H](O)[C@H](N)[C@H]1O [Amikacin]
MIC ([1]; strain AMT0068-40, M abscessus/massiliense complex): 32 µg/mL (≈ 54.6 µM) | MIC ([1]; strain AMT0119-7, M abscessus/massiliense complex): 32 µg/mL (≈ 54.6 µM) | MIC QC range (in parentheses) ([2]; P. aeruginosa ATCC 27853): (1-4) μg/mL

CC(C)(O/N=C(\C(=O)N[C@@H]1C(=O)N2C(C(=O)[O-])=C(C[n+]3ccccc3)CS[C@H]12)c1csc(N)n1)C(=O)O [Ceftazidime]
MIC QC range (in parentheses) ([2]; E. coli ATCC 25922): (0.06-0.5) μg/mL | MIC QC range (in parentheses) ([2]; P. aeruginosa ATCC 27853): (1-4) μg/mL | MIC ([3]; E. faecium MMX 485): >32 µg/mL

CC(S)C(C)S.[Bi] (stereo not shown) [MB-6, bismuth-2,3-butanedithiol]
MIC ([1]; MABSC strain AMT0130-8): 0.0625 µg/mL | MIC ([4]; Staphylococcus aureus, NRS1): 0.12 µg/mL | MIC ([4]; Staphylococcus aureus, NRS2): ≤ 0.06 µg/mL | MIC ([4]; Staphylococcus aureus, NRS24): 1 µg/mL

C[C@H]1COc2c(N3CCN(C)CC3)c(F)cc3c(=O)c(C(=O)O)cn1c23 [Levofloxacin]
MIC ([4]; Staphylococcus aureus, NRS1, S. aureus isolate NRS 1 (hVISA), read-out: MIC): 4 µg/mL | MIC ([4]; Staphylococcus aureus, NRS2, S. aureus isolate NRS 2, read-out: MIC): 4 µg/mL | MIC ([4]; Staphylococcus aureus, NRS3, S. aureus isolate NRS 3, read-out: MIC): > 8 µg/mL | MIC ([4]; Staphylococcus aureus, NRS4, S. aureus isolate NRS 4, read-out: MIC): 4 µg/mL | MIC ([4]; Staphylococcus aureus, NRS13, S. aureus isolate NRS 13, read-out: MIC): 0.12 µg/mL | MIC ([4]; Staphylococcus aureus, NRS18, S. aureus isolate NRS 18, read-out: MIC): 4 µg/mL | MIC ([4]; Staphylococcus aureus, NRS22, S. aureus isolate NRS 22, read-out: MIC): 8 µg/mL | MIC ([4]; Staphylococcus aureus, NRS24, S. aureus isolate NRS 24 (hVISA), read-out: MIC): > 8 µg/mL | MIC ([4]; Staphylococcus aureus, NRS27, S. aureus isolate NRS 27, read-out: MIC): 8 µg/mL | MIC ([3]; E. faecium MMX 485): >64 µg/mL

C[C@@H](O)[C@H]1C(=O)N2C(C(=O)O)=C(S[C@@H]3CN[C@H](C(=O)N(C)C)C3)[C@H](C)[C@H]12 [Meropenem]
MIC QC range (in parentheses) ([2]; E. coli ATCC 25922): (0.008-0.06) μg/mL | MIC QC range (in parentheses) ([2]; E. coli ATCC 35218): (0.008-0.06) μg/mL | MIC QC range (in parentheses) ([2]; K. pneumoniae ATCC BAA-1705): (8-64) μg/mL | MIC QC range (in parentheses) ([2]; P. aeruginosa ATCC 27853): (0.12-1) μg/mL | MIC ([3]; E. faecium MMX 485): >64 µg/mL

OCC(S)CS.[Bi] (stereo not shown) [MB-2B, bismuth-2,3-dimercaptopropanol]
MIC ([4]; Staphylococcus aureus, NRS1): 1 µg/mL | MIC ([4]; Staphylococcus aureus, NRS2): 0.5 µg/mL | MIC ([4]; Staphylococcus aureus, NRS3): 2 µg/mL | MIC ([4]; Staphylococcus aureus, NRS4): 1 µg/mL | MIC ([4]; Staphylococcus aureus, NRS13): 1 µg/mL | MIC ([4]; Staphylococcus aureus, NRS18): 1 µg/mL | MIC ([4]; Staphylococcus aureus, NRS22): 2 µg/mL | MIC ([4]; Staphylococcus aureus, NRS24): 1 µg/mL | MIC ([4]; Staphylococcus aureus, NRS27): 1 µg/mL | MIC ([3]; Enterococcus faecium, VRE, E. faecium MMX 485): 2 µg/mL | MIC ([3]; Enterococcus faecium, VRE, E. faecium MMX 752): 4 µg/mL

CCC[C@@H]1C[C@@H](C(=O)N[C@@H]([C@H]2O[C@H](SC)[C@H](O)[C@@H](O)[C@H]2O)[C@H](C)Cl)N(C)C1 [CLI]
MIC QC range (in parentheses) ([2]; S. aureus ATCC 29213): (0.06-0.25) μg/mL | MIC ([4]; S. aureus isolate NRS 1 (hVISA)): >8 µg/mL | MIC ([4]; S. aureus isolate NRS 2): >8 µg/mL | MIC ([4]; S. aureus isolate NRS 3): >8 µg/mL | MIC ([4]; S. aureus isolate NRS 4): >8 µg/mL | MIC ([4]; S. aureus isolate NRS 13): 0.06 µg/mL | MIC ([4]; S. aureus isolate NRS 18): >8 µg/mL | MIC ([4]; S. aureus isolate NRS 22): >8 µg/mL | MIC ([4]; S. aureus isolate NRS 24 (hVISA)): >8 µg/mL | MIC ([4]; S. aureus isolate NRS 27): >8 µg/mL

— patent US20240285571A1, “METHODS OF TREATING BONE INFECTIONS” (MICROBION CORPORATION, priority 2020, published 2024)
